Experimental findings from patent publication US20250221966A1, “RXFP1 AGONISTS” (BRISTOL-MYERS SQUIBB COMPANY, priority 2021, published 2025) are described below.

The assay addresses T1, human RXFP1 (Homo sapiens, UniProt Q9HBX9).
T1 construct: expressed in transfected cells
T1 sequence (Q9HBX9 1-757): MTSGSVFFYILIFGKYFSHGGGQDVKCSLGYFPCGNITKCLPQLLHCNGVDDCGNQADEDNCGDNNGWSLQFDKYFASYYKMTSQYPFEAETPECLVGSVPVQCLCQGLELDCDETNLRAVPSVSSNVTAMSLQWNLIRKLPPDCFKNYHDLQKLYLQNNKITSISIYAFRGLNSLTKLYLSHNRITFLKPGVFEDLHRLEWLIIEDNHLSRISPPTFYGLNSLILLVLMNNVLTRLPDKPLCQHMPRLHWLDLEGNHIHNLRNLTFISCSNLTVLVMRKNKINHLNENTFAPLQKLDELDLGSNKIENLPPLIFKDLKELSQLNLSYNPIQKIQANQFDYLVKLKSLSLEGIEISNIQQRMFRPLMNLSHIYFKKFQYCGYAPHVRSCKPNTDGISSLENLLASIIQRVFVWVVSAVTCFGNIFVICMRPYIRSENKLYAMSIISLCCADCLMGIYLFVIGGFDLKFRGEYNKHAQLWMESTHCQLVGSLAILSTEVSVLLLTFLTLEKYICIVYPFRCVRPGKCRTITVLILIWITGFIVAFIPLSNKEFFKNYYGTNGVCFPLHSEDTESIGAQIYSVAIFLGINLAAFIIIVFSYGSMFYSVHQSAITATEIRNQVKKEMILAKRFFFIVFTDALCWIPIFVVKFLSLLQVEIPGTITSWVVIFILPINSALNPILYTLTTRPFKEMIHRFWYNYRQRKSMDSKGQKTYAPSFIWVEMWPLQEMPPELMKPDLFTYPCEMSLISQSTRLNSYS
The experiment in a line: RXFP1 cAMP assay (hRXFP1 HEK293 cAMP assay, HTRF). The settings on record: HEK293 cells stably expressing human RXFP1, 30 min at room temperature, read-out: cAMP hRXFP1 HEK293 Assay EC50. The assay is classed as cell-based. In outline:
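hRXFP1-HEK293 stable line; HBSS + Ca/Mg, 20 mM HEPES, 0.05% BSA, 0.5 mM IBMX; cpd 0.010 nM–50 μM, 2% DMSO; 30 min RT; lysis, HTRF cAMP detection; 4-PL fit.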
On the technique in general: Cyclic AMP is a second messenger, typically raised through Gs and lowered through Gi signalling.
Turning to `C=C/C=C1\C2CCC1[C@H](C(=O)Nc1ccc(F)c(C(F)(F)F)c1)[C@@H]2NC(=O)c1cc(-c2cc(C(N)=O)ccc2F)ccc1OC` (stereo partly drawn) [compound 163], the EC50 (in general, the concentration needed to bring the measured effect to its halfway point) was 13 nM.

Consider `COc1ccc(C2=NOC3CN(CCO)CC23)cc1C(=O)N[C@H]1[C@@H](C(=O)Nc2ccc(F)c(C(F)(F)F)c2)[C@H]2CC[C@@H]1/C2=C\C1CC1` (single isomer, unassigned) [compound 455], for which the EC50 worked out at 2 nM. Under `COc1ccc(-c2cn(C)nc2C)cc1C(=O)N[C@H]1[C@@H](C(=O)Nc2ccc(F)c(C(F)(F)F)c2)[C@H]2CC[C@@H]1C2=C(C)C` [compound 92] stands 380 nM; under `COc1ccc(C2=NO[C@H]3CC(CO)C[C@@H]23)cc1C(=O)N[C@H]1[C@@H](C(=O)Nc2ccc(F)c(C(F)(F)F)c2)[C@H]2CC[C@@H]1/C2=C\C1CC(F)(F)C1` (stereo partly drawn) [compound 840], 4.5 nM; under `O=C(N[C@H]1[C@@H](C(=O)Nc2ccc(F)c(C(F)(F)F)c2)[C@H]2CC[C@@H]1/C2=C\C1CC1)c1cccc(C2=NOC3COCC23)c1` (single isomer, unassigned) [compound 647], 241 nM. Under `COc1ccc(C2=NOC3COCC23)cc1C(=O)N[C@H]1[C@@H](C(=O)N[C@H](C)C(C)(C)C)[C@H]2CC[C@@H]1/C2=C\C1CC1` (stereo partly drawn) [compound 485] stands 7.8 nM; under `COc1ccc(C2CC3COCC32)cc1C(=O)N[C@H]1[C@@H](C(=O)Nc2ccc(F)c(C(F)(F)F)c2)[C@H]2CC[C@@H]1/C2=C\C1CC1` (stereo partly drawn) [Example 725, (1R,2S,3R,4R,Z)-3-(5-(3-oxabicyclo[3.2.0]heptan-6-yl)-2-methoxybenzamido)-7-(cyclopropylmethylene)-N-(4-fluoro-3-(trifluoromethyl)phenyl)bicyclo[2.2.1]heptane-2-carboxamide], 360 nM; under `COc1ccc(-c2cc(C(OC(=O)N3CCC3)C(F)(F)F)ccc2F)cc1C(=O)N[C@@H]1C2CCC(/C2=C/C2CC2)[C@@H]1C(=O)Nc1ccc(F)c(C(F)(F)F)c1` (stereo partly drawn) [compound 216], 2 nM. Under `COc1ccc(-c2ccn(CC(=O)O)n2)cc1C(=O)N[C@@H]1C2CCC(/C2=C/C(F)(F)F)[C@@H]1C(=O)Nc1ccc(F)c(C(F)(F)F)c1` (stereo partly drawn) [compound 342] stands 390 nM. On to `COc1ccc(C2=NOC(C3(O)CC3)C2)cc1C(=O)N[C@H]1[C@@H](C(=O)Nc2ccc(F)c(C(F)(F)F)c2)[C@H]2CC[C@@H]1/C2=C\C1CC1` (single isomer, unassigned) [compound 491], for which the EC50 came out at 8.7 nM. Take `COc1cc(F)c(F)cc1C(=O)N[C@@H]1C2CCC(/C2=C/C(=O)Nc2ccccc2)[C@@H]1C(=O)Nc1ccc(F)c(C(F)(F)F)c1` (stereo partly drawn) [Example 34]: the EC50 is 4600 nM. The value for `O=C(N[C@H]1[C@@H](C(=O)Nc2ccc(F)c(C(F)(F)F)c2)[C@H]2CC[C@@H]1/C2=C\C1CC1)c1cccc(C2=NOC3COCC23)c1` (single isomer, unassigned) [compound 719] was 2490 nM. The value for `COc1ccc(-c2cc(C(=O)O)ccc2F)cc1C(=O)N[C@@H]1C2CCC(/C2=C/C(=O)N(C)C)[C@@H]1C(=O)Nc1ccc(F)c(C(F)(F)F)c1` (stereo partly drawn) [Example 323] was 854 nM; that for `COc1ccc(-c2cccn3c(C(=O)OCc4ccccc4)cnc23)cc1C(=O)N[C@@H]1C2CCC(/C2=C/C(F)(F)F)[C@@H]1C(=O)Nc1ccc(F)c(C(F)(F)F)c1` (stereo partly drawn) [compound 315] was 60 nM.

Consider `COc1ccc(-c2cc(CO)on2)cc1C(=O)N[C@H]1[C@@H](C(=O)Nc2ccc(F)c(C(F)(F)F)c2)[C@H]2CC[C@@H]1/C2=C\C1CC1` [Example 423, (1R,2S,3R,4R,Z)-7-(cyclopropylmethylene)-N-(4-fluoro-3-(trifluoromethyl)phenyl)-3-(5-(5-(hydroxymethyl)isoxazol-3-yl)-2-methoxybenzamido)bicyclo [2.2.1]heptane-2-carboxamide], for which the EC50 stood at 28 nM. As for `O=C(O)c1ccc(F)c(-c2ccc(OCCN3CCOCC3)c(C(=O)N[C@H]3[C@@H](C(=O)Nc4ccc(F)c(C(F)(F)F)c4)[C@H]4CC[C@@H]3/C4=C\C(F)(F)F)c2)c1` [Example 320, 6-fluoro-3′-(((1R,2R,3S,4R,Z)-3-((4-fluoro-3-(trifluoromethyl)phenyl)carbamoyl)-7-(2,2,2-trifluoroethylidene)bicyclo[2.2.1]heptan-2-yl)carbamoyl)-4′-(2-morpholinoethoxy)-[1,1′-biphenyl]-3-carboxylic acid], the EC50 stood at 1950 nM.

With `COc1ccc(-c2cc(C(=O)NC(C)C)ccc2F)cc1C(=O)N[C@@H]1C2CCC(C2=C(C)C)[C@@H]1C(=O)Nc1ccc(F)c(C(F)(F)F)c1` (stereo partly drawn) [compound 153], the EC50 is 140 nM.

In the case of `COc1ccc(C2=NO[C@H]3C[C@H](CO)C[C@@H]23)cc1C(=O)N[C@H]1[C@@H](C(=O)N[C@H](C)C2(C)CC2)[C@H]2CC[C@@H]1/C2=C\CCC(F)(F)F` [compound 812], the 50% effective concentration (EC50) amounted to 0.8 nM. The value for `COc1ccc(C2=NOC3COCC23)cc1C(=O)N[C@H]1[C@@H](C(=O)N[C@H](C)C2(C)CC2)[C@H]2CC[C@@H]1/C2=C\C1CC1` (stereo partly drawn) [Example 447] was 0.8 nM. Consider `COc1ccc(C2=NOC3C(O)CC(O)C23)cc1C(=O)N[C@H]1[C@@H](C(=O)Nc2ccc(F)c(C(F)(F)F)c2)[C@H]2CC[C@@H]1/C2=C\C1CC1` (stereo partly drawn) [Example 413, (1R,2S,3R,4R,Z)-7-(cyclopropylmethylene)-3-(5-(4,6-dihydroxy-3a,5,6,6a-tetrahydro-4H-cyclopenta[d]isoxazol-3-yl)-2-methoxybenzamido)-N-(4-fluoro-3-(trifluoromethyl)phenyl)bicyclo[2.2.1]heptane-2-carboxamide], for which the EC50 amounted to 39 nM. Turning to `COc1ccc(C2CCN(C(=O)C(C)(C)O)C2)cc1C(=O)N[C@H]1[C@@H](C(=O)Nc2ccc(F)c(C(F)(F)F)c2)[C@H]2CC[C@@H]1/C2=C\C1CC1` (single isomer, unassigned) [Example 449], the concentration giving a half-maximal response (EC50) worked out at 1.6 nM. `COc1ccc(-c2cc(C(OC(=O)NC34CC(C3)C4)C(F)F)ccc2F)cc1C(=O)N[C@@H]1C2CCC(/C2=C/C2CC2)[C@@H]1C(=O)Nc1ccc(F)c(C(F)(F)F)c1` (stereo partly drawn) [compound 232]: the EC50 turned out to be 1 nM. The value for `COc1ccc(-c2cc(C(OC(=O)NC(C)(C)C)C(=O)O)ccc2F)cc1C(=O)N[C@H]1[C@@H](C(=O)Nc2ccc(F)c(C(F)(F)F)c2)[C@H]2CC[C@@H]1/C2=C\CCC(F)(F)F` (stereo partly drawn) [compound 934] was 1.4 nM. Under `COc1ccc(-c2cc(S(=O)(=O)NC(C)(C)C)ccc2F)cc1C(=O)N[C@H]1[C@@H](C(=O)Nc2ccc(F)c(C(F)(F)F)c2)[C@H]2CC[C@@H]1/C2=C\C1CCCC1` [compound 958] stands 0.9 nM. The value for `COc1ccc(-c2cc([C@H](OC(=O)NC3CC3)C(F)(F)F)ccc2F)cc1C(=O)N[C@H]1[C@@H](C(=O)Nc2ccc(F)c(C(F)(F)F)c2)[C@H]2CC[C@@H]1/C2=C\CCC(F)(F)F` [compound 928] was 1.4 nM; that for `COc1ccc(C2=NOC3CC(C(C)O)CC23)cc1C(=O)N[C@H]1[C@@H](C(=O)Nc2ccc(F)c(C(F)(F)F)c2)[C@H]2CC[C@@H]1/C2=C\C1CC1` (stereo partly drawn) [compound 844] was 1.2 nM; that for `COc1ccc(C2=NOC3COCC23)cc1C(=O)N[C@H]1[C@@H](C(=O)NC2CCC(C(F)(F)F)C2)[C@H]2CC[C@@H]1/C2=C\C1CC1` (stereo partly drawn) [compound 649] was 250 nM.
